Measured values published in ChEMBL document CHEMBL1154035, “Synthesis, characterization, and anti-melanoma activity of tetra-O-substituted analogs of nordihydroguaiaretic acid” (Bioorg Med Chem Lett, 2009).

Tested on: Mus musculus
Test: Toxicity in ip dosed mouse
Assay type: organism-based
Settings: in vivo

Compound	LD50
CC(Cc1ccc(O)c(O)c1)C(C)Cc1ccc(O)c(O)c1 (configuration not stated) [NORDIHYDROGUAIARETIC ACID]	75 mg/kg
COc1ccc(C[C@@H](C)[C@@H](C)Cc2ccc(OC)c(OC)c2)cc1OC [TERAMEPROCOL]	1000 mg/kg
